Data set [1] has as its system HT-22 cells. The data set can be described thus: Resting cytosolic Ca2+ concentration, Fura2/Fluo3-loaded HT-22 cells. Particulars: 2 μM Aβ(1-42), control 75 ± 8 nM, mean ± SEM of triplicates, n > 60 cells. In kind it is cell-based, mouse. As to the method:
Cytosolic Ca^2+ imaging was assessed in the HT-22 cell culture with the fluorescent probe Fluo3-AM. […] The untread cells were regarded as the controls. […] Then, the cells were washed once with 1 mL of MLocke’s K5 buffer, and the 35 mm culture dishes were placed in the thermostatic plate at 37 °C (Warner Instrument Co., Hamden, CT, USA) of the Nikon Diaphot 300 inverted epifluorescence microscope (Tokyo, Japan) with an NCF Plan ELWD 40× objective (the pixel size of the images shown in this work was 0.2 μm). The images of the Fluo3-loaded cells were acquired with the Hamamatsu Orca-R^2 CCD camera (binning mode 2 × 2) with an excitation filter of 470 nm, a dichroic mirror of 510 nm with an emission filter of 520 nm, and a 0.3 s exposure time. […] The depletion of the Ca^2+ stores was triggered by adding 2 μM of the SERCA pump blocker Tg plus ethylene glycol tetraacetic acid (1 mM), in a Ca^2+-free Mlocke’s K5 buffer. Then, the SOCE was measured after the addition of 3 mM of CaCl2 to the Tg-containing medium. […] The activity of the RyR Ca^2+-leak channels was evaluated by incubation with 100 μM of the RyR antagonist ryanodine for 1 h in the HT-22 culture media. In all experiments with antagonists, we performed the respective dimethylsulfoxide vehicle controls. […]

A further data set concerns the target T1, RyR (Mus musculus, UniProt E9Q401).
T1 construct: incubation with 100 μM of the RyR antagonist ryanodine for 1 h in the HT-22 culture media; endogenous in cells; host or cells: HT-22 (mouse hippocampal cell line)
The data set can be described thus: Tg-induced Ca2+ release from stores in Fluo3-loaded HT-22 cells with the RyR antagonist ryanodine. In kind it is cell-based. Particulars: 2 μM Aβ(1-42) 2 h plus 100 μM ryanodine. As to the method:
(§1) Cytosolic Ca^2+ imaging was assessed in the HT-22 cell culture with the fluorescent probe Fluo3-AM. […] The untread cells were regarded as the controls. […] Then, the cells were washed once with 1 mL of MLocke’s K5 buffer, and the 35 mm culture dishes were placed in the thermostatic plate at 37 °C (Warner Instrument Co., Hamden, CT, USA) of the Nikon Diaphot 300 inverted epifluorescence microscope (Tokyo, Japan) with an NCF Plan ELWD 40× objective (the pixel size of the images shown in this work was 0.2 μm). The images of the Fluo3-loaded cells were acquired with the Hamamatsu Orca-R^2 CCD camera (binning mode 2 × 2) with an excitation filter of 470 nm, a dichroic mirror of 510 nm with an emission filter of 520 nm, and a 0.3 s exposure time. […] The depletion of the Ca^2+ stores was triggered by adding 2 μM of the SERCA pump blocker Tg plus ethylene glycol tetraacetic acid (1 mM), in a Ca^2+-free Mlocke’s K5 buffer. Then, the SOCE was measured after the addition of 3 mM of CaCl2 to the Tg-containing medium. […] The activity of the RyR Ca^2+-leak channels was evaluated by incubation with 100 μM of the RyR antagonist ryanodine for 1 h in the HT-22 culture media. In all experiments with antagonists, we performed the respective dimethylsulfoxide vehicle controls.

The next data set relates to PDI. Also on record: method as in earlier work. Particulars: up to 200 nM Aβ(1-42), HT-22 cell lysates, isomerase assay of ref 67; cited from earlier work.
The target of another data set is T2, STIM1 (Mus musculus, UniProt P70302).
T2 construct: endogenous in cells; host or cells: HT-22 cell lysate
The data set is described as follows: Co-immunoprecipitation of STIM1 with anti-Aβ antibody from HT-22 lysates, Western blot. In kind it is binding. Particulars: 250 nM Aβ(1-42), HT-22 cell lysates. As to the method: The HT-22 cells were lysed in a buffer: 25 mM of Tris(hydroxymethyl)aminomethane–HCl, pH 7.4, 150 mM of NaCl, 5 mM of ethylenediaminetetraacetic acid, 50 mM of NaF, 5 mM of NaVO3, 0.25% of Triton X-100, and 5 mM of methyl-β-cyclodextrin, supplemented with 1× […]^TM protease inhibitor cocktail. After cell centrifugation at 2000× g for 2 min at 4 °C, the supernatant was collected and supplemented with 50% glycerol. Bradford’s method was used to measure the protein concentration in HT22 lysates using the bovine serum albumin as the standard. The co-immunoprecipitation was carried out using the protein A/G PLUS-Agarose, following the instructions described by the manufacturer in the technical data sheet. […] Then, 10 μg of mouse anti-β-amyloid antibody was added to the Eppendorf tube and incubated for 1 h at 4 °C with continuous gentle shaking. Afterward, 50 μL of protein A/G PLUS-Agarose was added and incubated overnight at 4 °C with continuous shaking. […] The agarose beads were precipitated by centrifugation at 2500× g for 5 min at 4 °C in a refrigerated Eppendorf microcentrifuge. […] A centrifugation step (2500× g, 5 min at 4 °C) was performed in a refrigerated Eppendorf microcentrifuge after each washing step. […]
(In western blotting, separated proteins are transferred to a membrane and probed.)

Data set [2] has as its system mature cerebellar granule neurons. Particulars: 2 h of incubation; cited from earlier work.
Data set [3] deals with store-operated calcium entry (SOCE) in HT-22 cells. The data set can be described thus: SOCE Ca2+ imaging in Fluo3-loaded HT-22 cells (Tg-induced store release, then Ca2+ entry). In kind it is cell-based, mouse. As to the method:
as §1

For data set [4], the system named is HT-22 cells. The data set is described as follows: Intracellular ROS, H2DCFDA oxidation. In kind it is cell-based, mouse. Particulars: 2 μM Aβ(1-42), 10 μM H2DCFDA, p < 0.05. The method, then:
For the detection of intracellular ROS levels, we measured the oxidation of H2DCFDA to the fluorescent compound dichlorofluorescein, as previously described, with minor modifications. […] Then, 10 μM of H2DCFDA was added to the medium and the fluorescence intensity was recorded every 15 s for 10 min with an excitation filter of 470 nm, and 510 nm dichroic mirror/520 nm emission filter, using an exposure time of 0.2 s.

T1 sequence (E9Q401 whole entry): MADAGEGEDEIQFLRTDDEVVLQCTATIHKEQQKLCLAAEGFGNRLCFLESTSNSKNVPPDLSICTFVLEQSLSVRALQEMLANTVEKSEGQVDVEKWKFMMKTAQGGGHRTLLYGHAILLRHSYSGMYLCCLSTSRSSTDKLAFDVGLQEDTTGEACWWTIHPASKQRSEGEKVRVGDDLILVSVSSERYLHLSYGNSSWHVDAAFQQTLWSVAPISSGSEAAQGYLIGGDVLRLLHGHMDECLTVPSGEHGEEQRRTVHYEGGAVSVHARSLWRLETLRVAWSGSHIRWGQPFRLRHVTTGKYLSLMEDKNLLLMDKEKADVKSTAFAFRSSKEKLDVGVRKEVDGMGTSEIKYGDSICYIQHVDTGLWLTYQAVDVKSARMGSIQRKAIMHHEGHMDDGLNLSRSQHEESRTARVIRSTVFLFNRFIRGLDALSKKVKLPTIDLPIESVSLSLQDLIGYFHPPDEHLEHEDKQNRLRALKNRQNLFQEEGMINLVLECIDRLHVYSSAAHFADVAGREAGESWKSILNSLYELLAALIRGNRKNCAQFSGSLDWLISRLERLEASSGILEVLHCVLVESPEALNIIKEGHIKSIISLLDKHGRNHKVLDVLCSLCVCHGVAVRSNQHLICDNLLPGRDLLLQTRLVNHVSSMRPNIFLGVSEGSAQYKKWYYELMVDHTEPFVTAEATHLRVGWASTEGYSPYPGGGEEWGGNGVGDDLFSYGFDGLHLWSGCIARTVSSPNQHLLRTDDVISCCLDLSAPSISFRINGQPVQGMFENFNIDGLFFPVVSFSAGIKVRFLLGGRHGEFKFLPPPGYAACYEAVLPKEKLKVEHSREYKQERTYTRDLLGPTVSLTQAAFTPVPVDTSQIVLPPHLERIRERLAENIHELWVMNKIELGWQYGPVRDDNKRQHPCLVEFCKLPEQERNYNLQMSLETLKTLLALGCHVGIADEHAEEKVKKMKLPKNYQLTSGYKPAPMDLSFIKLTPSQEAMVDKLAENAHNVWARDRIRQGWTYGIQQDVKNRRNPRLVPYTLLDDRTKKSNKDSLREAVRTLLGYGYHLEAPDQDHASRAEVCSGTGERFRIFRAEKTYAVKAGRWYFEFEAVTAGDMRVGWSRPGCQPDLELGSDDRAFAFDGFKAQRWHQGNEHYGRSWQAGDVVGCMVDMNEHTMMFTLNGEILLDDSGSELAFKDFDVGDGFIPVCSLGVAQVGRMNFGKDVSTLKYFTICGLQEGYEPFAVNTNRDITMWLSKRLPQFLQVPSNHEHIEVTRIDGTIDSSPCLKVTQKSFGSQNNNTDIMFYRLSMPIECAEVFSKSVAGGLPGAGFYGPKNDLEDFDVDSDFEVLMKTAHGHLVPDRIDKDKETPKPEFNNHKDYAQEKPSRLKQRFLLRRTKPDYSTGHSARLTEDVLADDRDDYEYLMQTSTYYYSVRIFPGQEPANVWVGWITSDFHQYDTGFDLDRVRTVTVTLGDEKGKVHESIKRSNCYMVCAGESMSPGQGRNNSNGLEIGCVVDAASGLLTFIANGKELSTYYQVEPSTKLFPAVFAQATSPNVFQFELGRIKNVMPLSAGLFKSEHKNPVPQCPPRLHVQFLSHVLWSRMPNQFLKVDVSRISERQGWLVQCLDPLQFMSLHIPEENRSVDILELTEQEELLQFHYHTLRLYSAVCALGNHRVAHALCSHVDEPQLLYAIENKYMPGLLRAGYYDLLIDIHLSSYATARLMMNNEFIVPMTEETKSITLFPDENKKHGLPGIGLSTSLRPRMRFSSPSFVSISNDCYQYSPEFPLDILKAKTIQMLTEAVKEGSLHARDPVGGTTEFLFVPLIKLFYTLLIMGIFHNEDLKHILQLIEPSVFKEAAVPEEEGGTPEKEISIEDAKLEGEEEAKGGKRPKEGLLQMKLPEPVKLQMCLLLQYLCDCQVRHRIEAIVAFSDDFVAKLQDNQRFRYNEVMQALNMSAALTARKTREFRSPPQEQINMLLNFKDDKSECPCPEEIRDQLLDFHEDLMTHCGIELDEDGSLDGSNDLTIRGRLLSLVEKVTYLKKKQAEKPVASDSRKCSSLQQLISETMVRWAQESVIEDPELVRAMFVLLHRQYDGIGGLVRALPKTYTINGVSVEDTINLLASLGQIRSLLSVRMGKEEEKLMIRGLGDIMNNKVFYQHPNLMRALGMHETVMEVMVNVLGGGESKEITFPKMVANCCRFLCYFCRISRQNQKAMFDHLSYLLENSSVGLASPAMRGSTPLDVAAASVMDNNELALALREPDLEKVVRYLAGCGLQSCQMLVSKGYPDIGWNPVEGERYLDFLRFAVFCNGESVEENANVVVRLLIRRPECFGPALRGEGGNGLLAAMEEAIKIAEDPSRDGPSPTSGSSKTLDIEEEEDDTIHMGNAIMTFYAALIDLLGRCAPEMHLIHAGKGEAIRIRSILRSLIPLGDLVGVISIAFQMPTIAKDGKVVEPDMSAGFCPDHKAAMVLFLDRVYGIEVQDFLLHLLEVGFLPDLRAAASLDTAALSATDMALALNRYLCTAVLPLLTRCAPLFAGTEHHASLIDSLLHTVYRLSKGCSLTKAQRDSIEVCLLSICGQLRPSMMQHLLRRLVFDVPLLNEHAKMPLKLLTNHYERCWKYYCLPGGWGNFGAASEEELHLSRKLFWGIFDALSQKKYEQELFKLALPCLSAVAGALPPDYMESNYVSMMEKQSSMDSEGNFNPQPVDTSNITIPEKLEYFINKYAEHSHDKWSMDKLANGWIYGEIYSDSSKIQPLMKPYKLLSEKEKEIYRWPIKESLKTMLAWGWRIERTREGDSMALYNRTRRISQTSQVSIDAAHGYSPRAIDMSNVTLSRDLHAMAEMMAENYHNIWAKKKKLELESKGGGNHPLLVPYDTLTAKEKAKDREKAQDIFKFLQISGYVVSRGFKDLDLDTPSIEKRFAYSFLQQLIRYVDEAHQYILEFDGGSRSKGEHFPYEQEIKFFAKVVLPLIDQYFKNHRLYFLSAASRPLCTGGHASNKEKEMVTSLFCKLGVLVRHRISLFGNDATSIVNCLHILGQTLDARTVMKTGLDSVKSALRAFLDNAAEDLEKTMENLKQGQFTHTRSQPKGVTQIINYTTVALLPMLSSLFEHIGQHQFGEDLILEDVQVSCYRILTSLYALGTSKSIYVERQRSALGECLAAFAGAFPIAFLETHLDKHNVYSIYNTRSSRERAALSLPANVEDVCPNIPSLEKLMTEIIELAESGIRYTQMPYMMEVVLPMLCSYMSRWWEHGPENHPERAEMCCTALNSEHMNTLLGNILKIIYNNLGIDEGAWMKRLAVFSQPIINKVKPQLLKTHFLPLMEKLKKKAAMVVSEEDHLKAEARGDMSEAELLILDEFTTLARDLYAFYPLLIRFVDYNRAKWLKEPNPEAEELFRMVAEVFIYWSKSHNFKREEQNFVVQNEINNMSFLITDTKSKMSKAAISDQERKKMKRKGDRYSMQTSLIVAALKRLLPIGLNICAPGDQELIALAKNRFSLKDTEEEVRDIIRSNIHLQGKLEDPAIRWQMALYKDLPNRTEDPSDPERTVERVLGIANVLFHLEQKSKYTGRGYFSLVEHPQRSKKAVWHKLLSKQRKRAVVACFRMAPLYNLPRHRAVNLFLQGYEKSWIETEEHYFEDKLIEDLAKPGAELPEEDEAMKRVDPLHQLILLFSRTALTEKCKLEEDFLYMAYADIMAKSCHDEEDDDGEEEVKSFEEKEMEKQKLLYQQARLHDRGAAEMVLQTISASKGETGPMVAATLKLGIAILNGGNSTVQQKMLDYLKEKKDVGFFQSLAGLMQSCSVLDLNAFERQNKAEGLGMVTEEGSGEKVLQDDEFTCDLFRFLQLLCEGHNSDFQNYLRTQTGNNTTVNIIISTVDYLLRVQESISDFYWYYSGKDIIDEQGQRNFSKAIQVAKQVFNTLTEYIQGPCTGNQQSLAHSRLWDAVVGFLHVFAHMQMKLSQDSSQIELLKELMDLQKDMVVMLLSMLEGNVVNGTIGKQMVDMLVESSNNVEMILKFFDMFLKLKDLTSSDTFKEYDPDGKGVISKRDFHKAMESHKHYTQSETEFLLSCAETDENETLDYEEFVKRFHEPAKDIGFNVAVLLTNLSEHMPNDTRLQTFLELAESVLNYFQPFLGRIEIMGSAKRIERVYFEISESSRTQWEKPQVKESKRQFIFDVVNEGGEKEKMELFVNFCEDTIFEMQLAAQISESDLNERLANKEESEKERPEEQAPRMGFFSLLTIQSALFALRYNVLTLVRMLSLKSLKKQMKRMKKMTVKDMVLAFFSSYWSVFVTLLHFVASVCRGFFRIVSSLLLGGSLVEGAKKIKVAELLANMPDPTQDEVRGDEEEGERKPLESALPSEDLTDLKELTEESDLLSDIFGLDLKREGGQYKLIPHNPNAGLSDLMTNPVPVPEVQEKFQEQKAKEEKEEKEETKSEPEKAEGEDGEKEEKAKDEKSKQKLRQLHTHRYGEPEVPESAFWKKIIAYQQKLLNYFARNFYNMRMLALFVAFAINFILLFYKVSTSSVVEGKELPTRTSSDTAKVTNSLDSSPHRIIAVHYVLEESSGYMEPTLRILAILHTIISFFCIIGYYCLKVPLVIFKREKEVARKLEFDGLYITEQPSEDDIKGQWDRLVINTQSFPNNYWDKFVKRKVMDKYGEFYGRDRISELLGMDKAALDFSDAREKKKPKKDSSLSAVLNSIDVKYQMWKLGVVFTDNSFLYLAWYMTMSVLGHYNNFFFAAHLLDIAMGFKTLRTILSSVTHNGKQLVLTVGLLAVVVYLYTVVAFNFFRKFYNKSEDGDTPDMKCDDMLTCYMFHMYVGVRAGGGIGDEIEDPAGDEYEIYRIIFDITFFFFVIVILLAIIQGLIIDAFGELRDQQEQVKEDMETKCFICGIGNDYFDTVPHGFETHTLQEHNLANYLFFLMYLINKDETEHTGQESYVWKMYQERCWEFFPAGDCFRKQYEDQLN

“Aβ(1-42): Unlabeled amyloid β peptide (1-42), synthesized and supplied by StabVida”: the “intracellular Ca2+ concentration [Ca2+]i” value is 81 ± 9 nM in the data set on HT-22 cells [1] (2 h) and 82 ± 8 nM with HT-22 cells [1] (5 h). The “Tg-induced Ca2+ released from the stores, compared with cells treated only with Aβ(1-42)” value with RyR is reported as “three-fold higher”. The “inhibition of PDI activity” value in the data set with PDI is “did not significantly inhibit”. Also, in the data set with STIM1, the “STIM1 co-immunoprecipitation with anti-Aβ(1-42) antibody” value was “formation of STIM1-Aβ complexes”. Further, the “internalized Aβ(1-42)” value in data set [2] was “about 193 ± 21 nM”. Besides, the “inhibition of Ca2+ released from stores after Tg addition” value in data set [3] (2 μM Aβ(1-42) 2 h plus 3 μM BTP2 15 min, mean ± SEM) was found to be 42 ± 6%. The “inhibition of Ca2+ release from the stores after Tg addition, compared with control” value in data set [3] (2 μM Aβ(1-42), 2 h, 37 °C, 2 μM Tg, Ca2+-free medium, ΔF/F0, mean ± SEM, n > 80 cells) was found to be 37 ± 7%. In addition, the “inhibition of Ca2+ entry through the plasma membrane after Ca2+ addition, compared with control” value in data set [3] (2 μM Aβ(1-42), 2 h, 37 °C, 3 mM Ca2+ after Tg, ΔF/F0, mean ± SEM, n > 80 cells) worked out at 32 ± 6%. Also, in data set [3] (HT-22 cells, no thapsigargin), the “SOCE induced by Aβ(1-42) in the absence of Tg” value is reported as “did not detect”. Moreover, the “increase in ROS production compared with untreated cells” value is 1.3 fold with HT-22 cells [4] (2 h) and 1.7 fold in the data set with HT-22 cells [4] (5 h).
